# Assay results taken from patent US11167014B2, “Solid glp-1 derivative compositions for oral administration” (Novo Nordisk A/S, priority 2017, dated 2021).
# Several values for one entry are separate records, joined by “and”; a condition that tells them apart may be missing. Equal entries are not always repeated.
# Experiments:
# NCI-N87 cell monolayers = assay: Assay (I): epithelial cell monolayer permeability (transepithelial transport, Papp) and TEER, NCI-N87
# Procedure: N87 cells were seeded onto tissue culture treated polyester filters in 12-well Corning Transwell plates (1.13 cm^2, 0.4 μm pore size) at a density of 10^5 cells/well.
# (§1) Cell monolayers were grown in an atmosphere of 5% CO2-95% O2 at 37° C., replacing growth media every other day. The experiment was performed on day 14-16 after cell seeding.
# The amount of test compound transported from the donor chamber (apical side) to the receiver chamber (basolateral side) was measured as described in [1] for Caco-2 monolayers and in [2] for NCl-N87 cell monolayers, in an atmosphere of 5% CO2-95% O2 at 37° C. on a shaking plate (30 rpm). Before the experiment, cell monolayers were equilibrated for 60 min with transport buffer on both sides of the epithelium. The transport buffer consisted of Hank's balanced saline solution containing 0.1% Ovalbumin (w/v), 0.005% Tween20 (w/w) and 10 mM HEPES, adjusted to pH 7.4. The transport of [^3H]mannitol (PerkinElmer), was measured to verify the integrity of the epithelium.
# (§2) Translocation of a given compound across cell layers is expressed as the apparent permeability (Papp), given by:
# (§3) [formula] where dQ/dt is the steady-state flux across the cell layer (pmol/s), A is the surface area (1.12 cm^2), and C0 is the initial sample concentration.
# Before and after the experiment the transepithelial electrical resistance (TEER) of the cell monolayers was monitored. After experiments, cells were washed twice with buffer and replenished with medium for 24 h TEER recovery to ensure that the cell monolayers were viable and the enhancer effects were transient. The TEER was measured with EVOM™ Epithelial Voltohmmeter connected to Chopsticks.
# Caco-2 cell monolayers = assay: Assay (I): epithelial cell monolayer permeability (transepithelial transport, Papp) and TEER, Caco-2
# Procedure: Caco-2 cells were seeded in culturing flasks and passaged in Dulbecco's Modified Eagle' (DMEM) medium supplemented with 10% fetal bovine serum, 1% penicillin/streptomycin (100 U/ml and 100 μg/ml, respectively), 1% L-glutamine and 1% nonessential amino acids. Caco-2 cells were seeded onto tissue culture treated polycarbonate filters in 12-well Corning Transwell plates (1.13 cm^2, 0.4 μm pore size) at a density of 10^5 cells/well.
# as §1
# Before the experiment, cell monolayers were equilibrated for 60 min with transport buffer on both sides of the epithelium. The transport buffer consisted of Hank's balanced saline solution containing 0.1% Ovalbumin (w/v), 0.005% Tween20 (w/w) and 10 mM HEPES, adjusted to pH 7.4. The transport of [^3H]mannitol (PerkinElmer), was measured to verify the integrity of the epithelium.
# as §2, §3
# Before and after the experiment the transepithelial electrical resistance (TEER) of the cell monolayers was monitored. After experiments, cells were washed twice with buffer and replenished with medium for 24 h TEER recovery to ensure that the cell monolayers were viable and the enhancer effects were transient. The TEER was measured with EVOM™ Epithelial Voltohmmeter connected to Chopsticks. For Caco-2 monolayers the starting TEER was typically around 1000 Ω·cm^2 and for N87 monolayers it was around 1600 Ω·cm^2.
# [1] = NCI-N87, experiment of Table 3 (semaglutide)
# [2] = NCI-N87, experiment of Table 4 (FD4)
# [3] = Caco-2, experiment of Table 1 (semaglutide)
# [4] = Caco-2, experiment of Table 2 (Compound B)
# [5] = Caco-2, experiment of Table 5 (FD4)
# [6] = Caco-2, experiments of Tables 9-10 (semaglutide, FD4)
SMILES,transient decrease in cell monolayer TEER down to % of starting values (NCI-N87 cell monolayers; [1]),transient decrease in cell monolayer TEER down to % of starting values (NCI-N87 cell monolayers; [2]),transient decrease in cell monolayer TEER down to % of starting values (Caco-2 cell monolayers; [3]),transient decrease in cell monolayer TEER down to % of starting values (Caco-2 cell monolayers; [4]),transient decrease in cell monolayer TEER down to % of starting values (Caco-2 cell monolayers; [5]),transient decrease in cell monolayer TEER down to % of starting values (Caco-2 cell monolayers; [6]),"dapagliflozin concentration for which non-recovering TEER was observed (NCI-N87 cell monolayers; NCI-N87, 24 h in fresh medium) [mM]","effect alone on Compound B permeability (Caco-2 cell monolayers; 0.5-2.0 mM dapagliflozin, Caco-2 cell monolayers)","dapagliflozin concentration for which non-recovering TEER was observed (Caco-2 cell monolayers; Caco-2, 24 h in fresh medium)"
"O=C(O)CCCCCCCNC(=O)c1ccccc1O [SNAC, sodium N-(8-(2-hydroxybenzoyl)amino)caprylate]",~20 % of starting values,~25 % of starting values,~25 % of starting values,~25 % of starting values,~35 % of starting values,~35 % of starting values,,,
CCOc1ccc(Cc2cc([C@@H]3O[C@H](CO)[C@@H](O)[C@H](O)[C@H]3O)ccc2Cl)cc1 [dapagliflozin],~20 % of starting values,~25 % of starting values,~25 % of starting values,~25 % of starting values,~35 % of starting values,,> 2.6,negligible effect,> 2.7 mM and 3 mM
OC[C@H]1O[C@@H](c2ccc(Cl)c(Cc3ccc(O[C@H]4CCOC4)cc3)c2)[C@H](O)[C@@H](O)[C@@H]1O [empagliflozin],,,,,,~35 % of starting values,,,
